Test results as given in publication PMC9685055, “Biological activity of new bioactive steroids deriving from biotransformation of cortisone” (Microbial Cell Factories, 2022).
Values belong to the molecule of their own block, whether it stands above or below them.

How the values were obtained:
[1] = biological target: T1, cyclooxygenase (COX) (Ovis aries, UniProt P05979); test: Cyclooxygenase inhibitory assay (fluorescence COX activity kit); assay type: biochemical; settings: purified COX preparation, 50 µM, positive control
T1 construct: purchased Cayman 700200
T1 sequence (P05979 25-600): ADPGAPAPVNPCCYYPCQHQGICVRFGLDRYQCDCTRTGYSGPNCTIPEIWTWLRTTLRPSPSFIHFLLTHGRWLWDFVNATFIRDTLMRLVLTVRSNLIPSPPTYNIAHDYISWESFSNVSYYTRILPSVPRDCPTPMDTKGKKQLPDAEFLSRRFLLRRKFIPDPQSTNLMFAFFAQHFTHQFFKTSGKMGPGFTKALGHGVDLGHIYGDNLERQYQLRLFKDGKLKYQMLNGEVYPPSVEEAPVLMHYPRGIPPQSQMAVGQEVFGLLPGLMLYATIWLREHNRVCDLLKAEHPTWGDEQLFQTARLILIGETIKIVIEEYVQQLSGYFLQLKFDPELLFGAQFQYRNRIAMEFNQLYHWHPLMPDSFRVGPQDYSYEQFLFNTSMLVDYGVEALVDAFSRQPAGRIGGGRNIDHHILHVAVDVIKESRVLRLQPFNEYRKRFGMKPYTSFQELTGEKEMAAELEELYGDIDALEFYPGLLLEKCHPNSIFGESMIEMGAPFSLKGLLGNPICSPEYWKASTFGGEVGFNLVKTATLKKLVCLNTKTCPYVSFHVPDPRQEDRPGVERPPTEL
Experimental: Cyclooxygenase (COX) activity assay was determined by using a fluorescence COX activity assay kit (Cayman, No. 700200) for detecting COX-1 and COX-2 activity in purified enzyme and tissue homogenate preparations. The assay was conducted by monitoring the appearance of fluorescent compound resofurin in accordance to the supplier recommendation. Aspirin (acetylsalicylic acid; 50 µM) served as positive control. The test compounds were dissolved in 1–2% DMSO (v/v) at 4 different concentrations (0.1, 1, 10 and 100 µM) and added to a purified COX preparation. A 1–2% DMSO solution was added to control plates. The plates were shaken for a few seconds and incubated for 5 min at 25 °C. The fluorescence was measured by using an excitation wavelength of 540 nm and an emission wavelength of 590 nm. Average fluorescent values were calculated for all the samples (n = 3/group) in order to determine the percentage of inhibition in respect to control (i.e. untreated) plates.

[2] = system: p65 NF-κB nuclear translocation in HaCaT cells; test: TNFα-induced p65 NF-κB nuclear translocation, immunofluorescence; assay type: cell-based; settings: positive control (betamethasone-17-valerate 10 µg/mL), then 10 ng/mL TNFα 1 h
Experimental: HaCaT cells were cultured with Dulbecco’s modified Eagle’s medium High Glucose (Lonza, Milan, Italy) supplemented with 10% FBS, 100 U/mL penicillin, 100 μg/mL streptomycin and 2 mM L-glutamine as previously described. Cells were maintained in a humidified incubator at 37 °C with 5% CO2 and incubated until the monolayer was 80% confluent. Medium was changed every 2 days.
HaCaT cells were pretreated with or without 10 μM of both SCA and SCB for 24 h. Stock solutions of the two compounds were prepared in DMSO immediately before use and diluted to the final concentration in the culture medium. In some sets of experiments, betamethasone-17-valerate (10 µg/mL) served as a positive control; dimethyl sulfoxide (DMSO) served as a solvent control. After the pretreatments, cells were stimulated with 10 ng/mL TNFα for 1 h to induce the NFκB signaling pathway. Then, media were replaced with fresh culture medium. Cells and supernatants were collected at different time points for each set of experiments as described below.
Briefly, HaCaT cells were seeded on coverslips at a density of 1 × 10^5 cell/mL and incubated with DMEM high glucose supplemented with FBS 10%. Then, HaCaT cells were treated as indicated above. At the end of the proinflammatory stimulus with TNFα, cells were fixed in 4% paraformaldehyde in PBS for 30 min at 4 °C as previously described. HaCaT cells were permeabilized for 5 min at RT with PBS containing 0.2% Triton X-100. After the blocking with 1% BSA in PBS at RT for 1 h, HaCaT cells were incubated with p65 NF-κB primary antibody (1:100, sc-372; Santa Cruz Biotechnology, Inc., Dallas, Texas, USA) in PBS containing 0.5% BSA at 4 °C overnight. After washing, coverslips were incubated with appropriate secondary antibody for 1 h at RT. Nuclei were stained with 1 μg/mL DAPI (Sigma- Aldrich, Italy) for 1 min. […] Fluorescence was examined using an Epifluorescence microscope (Nikon Eclipse E800; Nikon Corporation, Surrey, UK) equipped with a plan apochromat 100 × 0.5 − 1.3 oil immersion objective and a mercury lamp source.

[3] = Photochemiluminescence (PCL-ACL) antioxidant assay; settings: 0.1 mg/mL; Trolox equivalents per g of sample
Experimental: Photochemiluminescence assay, based on the methodology of Popov and Lewin [35], was performed to measure the antioxidant activity of cortisone, SCA and SCB compounds against superoxide anion radicals generated from luminol, a photosensitizer, when exposed to UV light at λmax = 351 nm. The antioxidant activity of compounds was measured using ACL kits (Analytic Jena, Jena, Germany) with a Photochem apparatus (Analytic Jena, Jena, Germany). In the PCL-ACL assay, the photochemical generation of free radicals is combined with the sensitive detection using chemiluminescence. In ACL studies, the kinetic light emission curve was monitored for 3 min and expressed as mM Trolox equivalents. The areas under the curves were calculated using the PCL soft control and analysis software. […] The observed inhibition of the signal was plotted against the concentration of Trolox added to the assay medium. The concentration of the added sample was such that the generated luminescence during the 3 min sampling interval fell within the limits of the standard curve. For ACL assay, 2.3 mL of reagent 1 (solvent and dilution reagent, methanol), 0.2 mL of reagent 2 (buffer solution), 25 μL of reagent 3 (photosensitizer: luminol 1 mmol L^−1), and 10 μL of standard or sample solution were mixed and measured. Luminol is used as a photosensitizer and as a detecting substance for free radicals. Trolox were used for the standard calibration curve from […].

effect on COX activity [1]: strongly inhibited
SMILES: CC(=O)Oc1ccccc1C(=O)O [aspirin, acetylsalicylic acid, reference compound]

SMILES: C[C@H]1C[C@H]2[C@@H]3CCC4=CC(=O)C=C[C@]4(C)[C@@]3(F)[C@@H](O)C[C@]2(C)[C@@]1(O)C(=O)CO [betamethasone, reference compound]
effect on TNFα-mediated p65 activation [2]: only partly prevented

SMILES: C[C@]12CCC(=O)C=C1CC[C@@H]1[C@@H]2C(=O)C[C@@]2(C)[C@H]1CC[C@]2(O)C(=O)CO [cortisone]
antioxidant capacity, PCL-ACL assay [3]: 0.13 µmol/g
